Test results published in patent EP4501920A1, “NOVEL PYRAZOLE DERIVATIVES” (Aptabio Therapeutics Inc., priority 2022, dated 2023).

What was measured:
IL-8 = assay: Expression of IL-8 in pancreatic cancer associated fibroblasts (ELISA); assay type: cell-based, human; conditions: P.CAF cells; compounds 10, 20, 30, 40, 60 and 80 µM for 48 hours; FIG. 6
Description: (§1) In order to confirm the effect of the compounds of Synthetic examples of the present invention on inflammation reaction in cancer associated fibroblasts, whether the expression of IL6 and IL8 was inhibited by the compounds of Synthetic examples in pancreatic cancer associated fibroblasts (PCAF) was observed.
(§2) After inoculating 1.5×10^5 cells in a 6 well plate and then culturing in P.CAF complete media for 48 hours, the compounds of Synthetic examples were treated by 10, 20, 30, 40, 60 and 80 µM for 48 hours according to each condition, and then the expression of IL-6 and IL-8 was confirmed by performing ELISA with Quantkine ELISA kit (R&D systems) as follows.
(§3) 100 µl of the culture solution in which the compounds of Synthetic examples were treated for 48 hours was added to the microplate strip for analysis including a 100 µl assay diluent and left at a room temperature for 2 hours and then the contents were removed, and then it was washed with 400 µl wash buffer 4 times. 200 µl of a human IL-6 or IL-8 conjugate was added and left at a room temperature for 2 hours and then the contents were removed, and then it was washed with 400 µl wash buffer 4 times. 200 µl of substrate solution was added and left at a room temperature for 20 minutes and then 50 µl of stop solution was added, and the absorbance at a wavelength of 450nm was measured within 30 minutes to confirm the expression level of IL-6 and IL-8.

IL-6 = assay: Expression of IL-6 in pancreatic cancer associated fibroblasts (ELISA); assay type: cell-based, human; conditions: P.CAF cells; compounds 10, 20, 30, 40, 60 and 80 µM for 48 hours; FIG. 5
Description: as §1, §2, §3

[1] = test system: human foreskin fibroblasts (HFF-1, ATCC); assay: Collagen gel contraction induced by TGF-β1; assay type: cell-based; conditions: HFF-1 cells and bovine type I collagen; TGF-β1 (10 ng/ml); 72 hours; FIG. 7
Excerpt: In order to confirm the effect of the compounds of Synthetic examples on differentiation of fibroblasts into myofibroblasts, the inhibitory effect of the compounds of Synthetic examples on the phenomenon of contraction of gel induced by interaction of human foreskin fibroblasts (HFF-1, ATCC) and collagen was observed.
The mixed solution of the HFF-1 cells and collagen (bovine type I collagen) prepared at a concentration of 3×10^6 cells/ml was aliquoted in a 24 well plate, respectively, and then cultured under the condition of 5% CO2, 37 °C for 1 hour to induce gel polymerization. Then, after suspending the gel attached on the plate from the plate using a spoon, a medium comprising TGF-β1 and Synthetic example compounds was added to each well. After culturing for 72 hours, the Synthetic example compounds were treated by 10, 20, 30, 40, 60 and 80 µM to measure the size of the gel, and thereby, the degree of contraction of the gel by drug treatment was confirmed.

[2] = test system: N27 (rat dopaminergic neural cell, Sigma) cells; assay: ROS production induced by alpha-synuclein preformed fibril (PFF) in dopaminergic neural cells (CellROX-Deep Red); assay type: cell-based; conditions: 0.001 µM, 24 hours, FIG. 2
Description: In order to confirm the effect of the compounds of Synthetic examples on ROS production from dopaminergic neural cells, ROS production was induced by alpha-synuclein preformed fibril (PFF) stimulation on N27 (rat dopaminergic neural cell, Sigma) cells and under this condition, the inhibitory effect of ROS production of the compounds of Synthetic examples was observed.
The N27 cells were cultured in RPMI medium containing 10% FBS, 1 µM angiotensin II, and the prepared cells were aliquoted at a concentration of 4×10^3 cells/well on a 6-well plate. The ROS production stimulus, PFF (preformed fibril) and the compounds of Synthetic examples were treated to the cells. After treating the compounds of Synthetic examples for 24 hours, fluorescence of each well was measured using CellROX-Deep Red reagent, thereby confirming the degree of ROS production.

[3] = test system: LX-2 (human hepatic stellate cells); assay: ROS production induced by PMA in LX-2 cells; assay type: cell-based; conditions: FIG. 1
Excerpt: (§4) In order to confirm the effect of the compounds of Synthetic examples on ROS production from fibroblasts and specific substrate cells, ROS production was induced by stimulation of PMA (phorbol 12-myristate 13-acetate), TGF-β1, palmitate or high concentration-glucose, or the like, in HL-60 cells differentiated into neutrophil cells by DMSO treatment, NHLF (normal human lung fibroblast, Lonza), LX-2 (human hepatic stellate cells, Sigma), ARPE19 (human retinal pigment epithelial cell, ATCC), and KEL-FIB (Keloid fibroblast, ATCC) cells, and under this condition, the inhibitory effect of ROS production of the compounds of Synthetic examples was observed.
(§5) The NHLF (normal human lung fibroblast, Lonza), LX-2 (human hepatic stellate cells, Sigma), ARPE19 (human retinal pigment epithelial cell, ATCC), KEL-FIB (keloid fibroblast, ATCC) cells were suspended in a culture medium containing 10% FBS and aliquoted on a 96 well plate and then cultured under the condition of 5% CO2, 37°C for 24 hours. After pre-treating the compounds of Synthetic examples at a concentration of 10, 20, 30, 40, 60 and 80 µM for 30 minutes to 1 hour, the ROS stimulus was treated to each well containing the cells and drug. After additional culturing for 48 hours, the ROS production level was confirmed using L-012 or DCF-DA.

[4] = test system: NHLF (normal human lung fibroblast); assay: ROS production induced by PMA in NHLF cells; assay type: cell-based; conditions: FIG. 1
Excerpt: as §4, §5

[5] = test system: alpha-synuclein preformed fibril (PFF) injection Parkinson's disease mouse model; assay: Brain damage treatment effect in PFF injection Parkinson's disease mouse model; assay type: in vivo, C57Bl/6 mice; conditions: 25 mg/kg orally once a day for 7 weeks
Description: In order to test the effect for preventing or treating brain disease or disorder of the compounds of Synthetic examples, it was evaluated using an alpha-synuclein preformed fibril (PFF) injection Parkinson's disease mouse model.
C57Bl/6 mice were used, and all the mice were maintained under the standard condition. The experiment was conducted by dividing the experimental animals into a normal control group in which distilled water was orally administered (negative control), an alpha-synuclein preformed fibril (PFF) injection Parkinson's disease induction group (vehicle control), and an experimental group in which the compound of Synthetic example 16 of 25 mg/kg was orally administered into the alpha-synuclein preformed fibril (PFF) injection Parkinson's induction group daily (Synthetic example) with 8 animals in each group. For the normal control group, physiological saline solution was administered, and the Synthetic example compound was orally administered once a day for 7 weeks, and then a behavior change experiment and a histopathological experiment were performed.
The behavior change was analyzed by Rota rod, pole test and hindlimb clasping, and the average value of the 3 experiments per each animal was measured. […]

Structure (SMILES) | IL-8 expressed in P.CAF (IL-8) | IL-6 expressed in P.CAF (IL-6) | contraction of the gel induced by TGF-β1 [1] | ROS production induced by PFF [2] | also measured
CN(Cc1ccc(F)cc1F)C1CCc2nn(-c3ccccn3)c(O)c2C1 (stereo not drawn) [Compound 5, 5-[(2,4-Difluorobenzyl)methylamino]-2-(pyridin-2-yl)-4,5,6,7-tetrahydro-2H-indazol-3-ol] | effectively inhibited | effectively inhibited | effectively inhibited | – | –
O=C(C1CC1)N1CCN(C2CCc3nn(-c4ccccn4)c(O)c3C2)CC1 (stereo not drawn) [Compound 38, Cyclopropyl[4-(3-hydroxy-2-(pyridin-2-yl)-4,5,6,7-tetrahydro-2-indazol-5-yl)piperazin-1-yl]methanone] | effectively inhibited | effectively inhibited | effectively inhibited | – | –
Oc1c2c(nn1-c1ccccn1)CCC(Nc1ccc(F)c(F)c1)C2 (stereo not drawn) [Compound 32, 5-(3,4-Difluorophenylamino)-2-(pyridin-2-yl)-4,5,6,7-tetrahydro-2H-indazol-3-ol] | – | – | – | effectively inhibited | –
OCCOCCN1CCN(C2CCc3nn(-c4ccccn4)c(O)c3C2)CC1 (stereo not drawn) [Compound 17] | – | – | – | – | ROS production induced by PMA [3]: inhibited; ROS production induced by PMA [4]: inhibited
COc1cccc(CN(C)C2CCc3nn(-c4ccccn4)c(O)c3C2)c1 (stereo not drawn) [Compound 13, 5-[(3-Methoxybenzyl)methylamino]-2-(pyridin-2-yl)-4,5,6,7-tetrahydro-2H-indazol-3-ol] | – | – | effectively inhibited | – | –
Oc1c2c(nn1-c1ccccn1)CCC(N1CCCCC1)C2 (stereo not drawn) [Compound 14, 5-Piperidin-1-yl-2-(pyridin-2-yl)-4,5,6,7-tetrahydro-2H-indazol-3-ol] | – | – | effectively inhibited | – | –
CN1CCN(C2CCc3nn(-c4ccc(C(F)(F)F)cn4)c(O)c3C2)CC1 (stereo not drawn) [Compound 82, 5-(4-Methylpiperazin-1-yl)-2-(5-(trifluoromethyl)pyridin-2-yl)-4,5,6,7-tetrahydro-2H-indazol-3-ol] | – | – | – | effectively inhibited | –
CN(Cc1cccc(S(C)(=O)=O)c1)C1CCc2nn(-c3ccccn3)c(O)c2C1 (stereo not drawn) [Compound 23, 5-[Methyl(3-methylsulfonylbenzyl)amino]-2-(pyridin-2-yl)-4,5,6,7-tetrahydro-2H-indazol-3-ol] | effectively inhibited | effectively inhibited | effectively inhibited | – | –
CN(Cc1ccc(S(C)(=O)=O)cc1)C1CCc2nn(-c3ccccn3)c(O)c2C1 (stereo not drawn) [Compound 12, 5-[(4-Methanesulfonylbenzyl)methylamino]-2-(pyridin-2-yl)-4,5,6,7-tetrahydro-2H-indazol-3-ol] | – | – | effectively inhibited | effectively inhibited | –
CN1CCN(C2CCc3nn(-c4ccccn4)c(O)c3C2)CC1 (stereo not drawn) [Compound 16, 5-(4-Methylpiperazin-1-yl)-2-(pyridin-2-yl)-4,5,6,7-tetrahydro-2H-indazol-3-ol] | – | – | effectively inhibited | effectively inhibited | Parkinson-like behavior symptoms improved ([5]; Rota rod, pole test, hindlimb clasping): ≥ 50%; aggregation and accumulation of a-synuclein improved ([5]; striatum histopathology): ≥ 50%
CN(Cc1ccc2ncccc2c1)C1CCc2nn(-c3ccccn3)c(O)c2C1 (stereo not drawn) [Compound 63, 5-[Methyl(quinolin-6-ylmethyl)amino]-2-(pyridin-2-yl)-4,5,6,7-tetrahydro-2H-indazol-3-ol] | effectively inhibited | effectively inhibited | effectively inhibited | – | –
CN(Cc1cc2ccccc2cn1)C1CCc2nn(-c3ccccn3)c(O)c2C1 (stereo not drawn) [Compound 62, 5-[(Isoquinolin-3-ylmethyl)methylamino]-2-(pyridin-2-yl)-4,5,6,7-tetrahydro-2H-indazol-3-ol] | effectively inhibited | effectively inhibited | effectively inhibited | – | –
CN(C1CCc2nn(-c3ccccn3)c(O)c2C1)C1CCCc2cccnc21 (stereo not drawn) [Compound 33, 5-[Methyl(5,6,7,8-tetrahydroquinolin-8-yl)amino]-2-(pyridin-2-yl)-4,5,6,7-tetrahydro-2H-indazol-3-ol] | effectively inhibited | effectively inhibited | effectively inhibited | – | –
